For the first experiment, the target named is T1, K103NNY181C mutant reverse transcriptase (Human immunodeficiency virus type 1 group M subtype B, UniProt P04585, K690N/Y768C).
T1 construct: mutations that occur in the reverse transcriptase segment of the pol gene
Nature of the experiment: Reverse transcriptase enzymatic assay (PicoGreen), K103N/Y181C mutant RT. The format is biochemical, HIV-1. The following applies: IC50 mut (nM), mutant (K103N/Y181C) reverse transcriptase, enzymatic assay of Example 24. As to the method: The enzymatic assay employed is described as follows: The reverse transcriptase (RT) enzyme assay has been adapted to a 96-well microtiter plate format and uses PicoGreen™ as a fluorescent intercalator. More explicitly, the HIV-1 RT enzyme was thawed and appropriately diluted into Tris/HCl 50 mM pH 7.8 containing NaCl 60 mM, MgCl2.6H2O 2 mM, DTT 6 mM, GSH 2 mM and 0.02% w/v Chaps to give ≈10 nM enzyme. To 10 μL of this enzyme solution was added 10 μL of inhibitor solution (40 μM to 2.032 nM inhibitor in the same assay buffer as above containing 4% v/v DMSO). The plate was pre-incubated for 15 minutes at room temperature before proceeding to the next step. In this pre-incubation step, the highest and lowest inhibitor concentrations were 20 μM and 1.016 nM respectively and the concentration of DMSO was 2% v/v. Then the enzymatic reaction was initiated by addition of 20 μL of substrate solution. The final reaction mixture contained Tris/HCl 50 mM pH 7.8, NaCl 60 mM, MgCl2.6H2O 2 mM, DTT 6 mM, GSH 2 mM, CHAPS 0.02% w/v, DMSO 1% v/v, poly rC 45 nM, dG15 4.5 nM, dGTP 3.6 μM, and 2.5 nM enzyme. In this incubation step, the highest and lowest inhibitor concentrations were 10 μM and 0.508 nM respectively. After addition of the substrate cocktail, the plate was covered with a plastic seal and incubated for 50 minutes at 37° C. in a dry incubator. The reaction was then quenched by addition of 5 μL of EDTA 0.5 M. The plate was shaken for 30 seconds at medium speed and incubated for 5 minutes at room temperature. Then 160 μL of PicoGreen™ 1:400 dilution from commercial stock (diluted in Tris 20 mM pH 7.5 with EDTA 1 mM) was added and the plate was shaken for 30 seconds and incubated for 10 minutes at room temperature. The plate was then analyzed using a POLARstar Galaxy fluorometer (BMG Labtechnologies) with λex and λem of 485 nm and 520 nm respectively. Each well was read for 1.25 second. Each row contained at its extremities a blank and a control well.
With `CC(C)(C)c1ccc(-n2nnnc2SCC(=O)Nc2ccc(NC(=O)Cc3ccccc3[N+](=O)[O-])cc2Cl)c(Cl)c1` [Compound 7019], the IC50 (commonly the point on the concentration scale where inhibition reaches its midpoint) was found to be 25 nM.

Consider `CN(C)c1ccc(CC(=O)Nc2ccc(NC(=O)CSc3nnnn3-c3ccc(C(C)(C)C)cc3Cl)c(Cl)c2)cc1` [Compound 7037], for which the IC50 is 236 nM. Turning to `CCOC(=O)c1ccc(NC(=O)Nc2ccc(NC(=O)CSc3nnnn3-c3ccc(C(C)(C)C)cc3Cl)c(Cl)c2)cc1` [Compound 7006], the IC50 amounted to 74 nM.

Compound `CC(C)(C)c1ccc(-n2nnnc2SCC(=O)Nc2ccc(NC(=O)c3ccccc3O)cc2Cl)c(Cl)c1` [Compound 7014] showed an IC50 of 415 nM. Take `CC(C)(C)c1ccc(-n2nnnc2SCC(=O)Nc2ccc(NC(=O)Cc3ccccc3O)cc2Cl)c(Cl)c1` [Compound 7042]: the IC50 was 27 nM. The compound `CC(C)(C)c1ccc(-n2nnnc2SCC(=O)Nc2ccc(NC(=O)Cc3ccncc3)cc2Cl)c(Cl)c1` [Compound 7030] registered an IC50 of 38 nM. The same measure, in the same setting: with `CC(C)(C)c1ccc(-n2nnnc2SCC(=O)Nc2ccc(NC(=O)c3ccc(O)cc3)cc2Cl)c(Cl)c1` [Compound 7011] the figure was 181 nM.

Staying with this experiment, now noted: IC50 mut, K103N/Y181C mutant reverse transcriptase, enzymatic assay of Example 24.
In the case of `CC(C)(C#Cc1ccc(NC(=O)CSc2nnnn2-c2ccccc2Cl)c(Cl)c1)C(=O)O` [Compound 4207], the IC50 came out at 442 nM. `CC(C)(C#Cc1ccc(NC(=O)CSc2nnnn2-c2cc(Cl)c(C3CC3)cc2Cl)c(Cl)c1)C(=O)O` [Compound 4206]: the midpoint of inhibition, the IC50, lay at 152 nM. As to `CNCCOC(=O)COC(C)(C)C#Cc1ccc(NC(=O)CSc2nnnn2-c2ccc(C(C)(C)C)cc2Cl)c(Cl)c1` [Compound 4035], the IC50 is 56 nM. Turning to `CC(C)(C#Cc1ccc(NC(=O)CSc2nnnn2-c2ccc(C3CC3)cc2Cl)c(Cl)c1)NC(=O)C1CC1` [Compound 4079], the IC50 was determined as 6.8 nM. `CC(C)(C#Cc1ccc(NC(=O)CSc2nnnn2-c2cc(C(F)(F)F)cc(C3CC3)c2Cl)c(Cl)c1F)NC(=O)c1ccc[n+]([O-])c1` [Compound 4230] yielded an IC50 of 30.5 nM.

Compound `CC(C)(C)c1ccc(-n2nnnc2SCC(=O)Nc2ccc(C#CCCCCO)cc2Cl)c(Cl)c1` [Compound 4003] yielded an IC50 of 643 nM. `CN(C)CCCC(=O)NC(C)(C)C#Cc1ccc(NC(=O)CSc2nnnn2-c2ccc(C3CC3)cc2Cl)c(Cl)c1` [Compound 4108] yielded an IC50 of 27 nM.

Compound `CN1CCN(CCOC(C)(C)C#Cc2ccc(NC(=O)CSc3nnnn3-c3ccc(C4CC4)cc3Cl)c(Cl)c2)CC1` [Compound 4105] displayed an IC50 of 66.5 nM. This IC50 lies about 2.5-fold higher than the previous one. The compound `CC(=O)NNC(=O)COC(C)(C)C#Cc1ccc(NC(=O)CSc2nnnn2-c2ccc(C(C)(C)C)cc2Cl)c(Cl)c1` [Compound 4043] yielded an IC50 of 35 nM. Regarding `CC(=O)NC(C)(C)C#Cc1ccc(NC(=O)CSc2nnnn2-c2cc(C(F)(F)F)ccc2Cl)c(Cl)c1` [Compound 4141], the half-maximal inhibitory concentration (IC50) was determined as 40 nM. `C=CC#Cc1ccc(NC(=O)CSc2nnnn2-c2ccc(C3CC3)cc2Cl)c(Cl)c1` [Compound 4133]: the IC50 came to 53.5 nM. The IC50 values of the last two compounds are within 1.5-fold of each other. Same read-out and setting: as for `CC(C)(C#Cc1ccc(NC(=O)CSc2nnnn2-c2cc(C3CC3)ccc2Cl)c(Cl)c1)NC(=O)CN` [Compound 4214], the figure is 19.5 nM. `CC(C)(C#Cc1ccc(NC(=O)CSc2nnnn2-c2ccc(C3CC3)cc2Cl)c(Cl)c1)NC(=O)CN1CCN(CCn2cccc2)CC1` [Compound 4126] registered an IC50 of 78 nM. Same read-out and setting: as for `CC(C)(C#Cc1ccc(NC(=O)CSc2nnnn2-c2cc(C(F)(F)F)ccc2Cl)c(Cl)c1)NC(=O)c1cc[n+]([O-])cc1` [Compound 4120], the figure is 17.5 nM; as for `CC(C)(C#Cc1ccc(NC(=O)CSc2nnnn2-c2cc(CC3CC3)ccc2Cl)c(Cl)c1)C(=O)O` [Compound 4213], 32.5 nM. Same read-out and setting: with `CC(C)(C#Cc1ccc(NC(=O)CSc2nnnn2-c2ccc(C3CC3)cc2Cl)c(Cl)c1)C(=O)NCCCN1CCCC1=O` [Compound 4152] the figure was 36.5 nM; with `CC(C)(O)C#Cc1ccc(NC(=O)CSc2nnnn2-c2cc(Cl)c(C3CC3)cc2Cl)c(Cl)c1` [Compound 4070], 82.5 nM. On the same count and under the same terms, as for `CCC(C#Cc1ccc(NC(=O)CSc2nnnn2-c2ccc(C3CC3)cc2Cl)c(Cl)c1)(CC)NC(=O)OC(C)(C)C` [Compound 4066], the figure is 732 nM.

Still in this experiment, the particulars now being: IC50 mut, mutant reverse transcriptase, enzymatic assay of Example 24.
In the case of `CN(C)c1ccc(NC(=O)COc2ccc(NC(=O)CSc3nnnn3-c3ccc(C(C)(C)C)cc3Cl)c(Cl)c2)cc1` [Compound 5012], 466 nM corresponded to half-maximal inhibition (IC50). `CC(C)c1ccc(-n2nnnc2SCC(=O)Nc2ccc(-c3ccc(C(C)(C)C(=O)O)cc3)cc2Cl)c(Cl)c1` [Compound 2055] displayed an IC50 of 56 nM. In the case of `CC(C)(C)c1ccc(-n2nnnc2SCC(=O)Nc2ccc(OCC(=O)NCCO)cc2Cl)c(Cl)c1` [Compound 5015], half-maximal inhibition (IC50) required 158 nM.

The compound `CC(C)(C)c1ccc(-n2nnnc2SCC(=O)Nc2ccc(C(=O)NCCN3CCOCC3)cc2Cl)c(Cl)c1` [Compound 6028] gave an IC50 of 55 nM. In turn, `Cc1ccc(-n2nnnc2SCC(=O)Nc2ccc(-c3cscn3)cc2Cl)c(Cl)c1` [Compound 3014] registered an IC50 of 142 nM.

In turn, `COC(=O)C1CCN(CCOc2ccc(NC(=O)CSc3nnnn3-c3ccc(C(C)(C)C)cc3Cl)c(Cl)c2)CC1` [Compound 3035] had an IC50 of 355 nM. As for `CC(C)(C)c1ccc(-n2nnnc2SCC(=O)Nc2ccc(C(=O)Nc3ccncc3)cc2Cl)c(Cl)c1` [Compound 6029], the IC50 came out at 22 nM. In turn, `CC(C)(C)c1ccc(-n2nnnc2SCC(=O)Nc2ccc(OCC(=O)NCC(=O)O)cc2Cl)c(Cl)c1` [Compound 5020] gave an IC50 of 163 nM.

Compound `CC(C)(C)c1ccc(-n2nnnc2SCC(=O)Nc2ccc(OCC(=O)Nc3ccccc3C(=O)O)cc2Cl)c(Cl)c1` [Compound 5010] registered a 50% inhibitory concentration (IC50) of 402 nM.

`Cc1ccc(-n2nnnc2SCC(=O)Nc2ccc(-c3c[nH]cn3)cc2Cl)c(Cl)c1` [Compound 3018] yielded an IC50 of 269 nM. The IC50 values of the last two compounds are within 1.5-fold of each other.

As to `CC(C)(C)c1ccc(-n2nnnc2SCC(=O)Nc2ccc(S(=O)(=O)NCC(=O)O)cc2Cl)c(Cl)c1` [Compound 3032], half-maximal inhibition (IC50) required 97.5 nM. With `CC(C)(C)c1ccc(-n2nnnc2SCC(=O)Nc2ccc(C(=O)Nc3ccc(O)cc3)cc2Cl)c(Cl)c1` [Compound 6013], the half-maximal inhibitory concentration (IC50) stood at 34 nM. As for `CN(CCc1cc[n+]([O-])cc1)C(=O)COc1ccc(NC(=O)CSc2nnnn2-c2ccc(C3CC3)cc2Cl)c(Cl)c1` [Compound 5041], the half-maximal inhibitory concentration (IC50) is 132 nM. As for `O=C(CSc1nnnn1-c1ccc(C2CC2)cc1Cl)Nc1ccc(-c2ccc(OCCN3CCCC3)cc2)c(F)c1Cl` [Compound 2057], the IC50 was 8.8 nM. This IC50 is about 15-fold lower than that of the compound before.

Turning to `CC(C)c1ccc(-n2nnnc2SCC(=O)Nc2ccc(-c3ccc(OCCN4CCCC4)cc3)cc2Cl)c(Cl)c1` [Compound 2056], the IC50 amounted to 29 nM.

`O=C(CSc1nnnn1-c1ccc(C2CC2)cc1Cl)Nc1ccc(-c2ccc(OCCN3CCCCC3)cc2)cc1Cl` [Compound 2047] gave an IC50 of 63.5 nM. This IC50 is about 2.2-fold higher than that of the compound before. On to `Cc1cc(-c2ccc(NC(=O)CSc3nnnn3-c3ccc(C(C)(C)C)cc3Cl)c(Cl)c2)ccc1OCC(=O)O` [Compound 3010], for which the IC50 stood at 33 nM. Turning to `CC(C)(C)c1ccc(-n2nnnc2SCC(=O)Nc2ccc(S(=O)(=O)NCCc3ccccc3)cc2Cl)c(Cl)c1` [Compound 3024], the IC50 is 516 nM. The compound `CC(C)(C)c1ccc(-n2nnnc2SCC(=O)Nc2ccc(OCC(=O)NCCC(=O)O)cc2Cl)c(Cl)c1` [Compound 5025] had an IC50 of 124 nM. Against the preceding compound, the IC50 is about 4.2-fold lower. Consider `Cc1ccc(-c2c(OCC(=O)Nc3ccc(C#CC(C)(C)O)cc3Cl)n[nH]c2C)c(Cl)c1` [Compound 1016], for which the IC50 is 48 nM.

These data come from patent US7517998B2, “Non nucleoside reverse transcriptase inhibitors” (priority 2004, dated 2009).
